The source of these data is US11603570B2, “Methods for the detection and treatment of leukemias that are responsive to DOT1L inhibition” (MEMORIAL SLOAN KETTERING CANCER CENTER, priority 2013, dated 2023).

Entries after “also recorded” stand apart in the source; their conditions may differ.

Assay [1] has as its system Jurkat. The experiment in a line: Cell proliferation, Jurkat. Type of assay: cell-based. Conditions: Homo sapiens; non-MLL-translocated line Jurkat; FIG. 2.
For the next assay, the system named is 697. The experiment in a line: Cell proliferation, 697. Format: cell-based. The following applies: Homo sapiens; non-MLL-translocated line 697; FIG. 2.
The subject of assay [2] is H3K79me2. Briefly: H3K79 methylation in NUP98-NSD1 transformed cells. Type of assay: cell-based, mouse. Conditions: 10 μM.
Assay [3] has as its system NUP98-NSD1 transformed cells. Briefly: Annexin V apoptosis in NUP98-NSD1 transformed cells. Type of assay: cell-based, mouse. The following applies: 10 μM, 10 days; compared with MLL-AF9 transformed cells; FIG. 8B. The protocol:
The percentage of Annexin V positive cells is shown.
Apoptosis was assessed by staining cells with Annexin V 10 days after treatment. The extent of apoptosis was compared to that found in MLL-AF9 transformed cells treated in a similar fashion.

For assay [4], the system named is HOXA9/MEIS1 transformed cells. The experiment in a line: Sensitivity of HOXA9/MEIS1 transformed cells. Format: cell-based, murine.
Assay [5] deals with MLL-AF9 transformed cells. Briefly: Cell cycle arrest and apoptosis of MLL-AF9 transformed cells. Format: cell-based, murine.
The subject of a further assay is other methyltransferases. Conditions: in words; FIG. 1B; cited from earlier work.
Assay [6] has as its system Jurkat. Conditions: Daigle, 2011; cited from earlier work.
Assay [7] has as its system H3K79me2. The following applies: 0.048, 0.195, 0.781, 3.12, and 12.5 μm; FIG. 1A; cited from earlier work.
In a further assay the test system is MLL xenograft. Conditions: in vivo administration; cited from earlier work.
Another assay relates to H3K79 methylation. Conditions: MLL-translocated leukemia cell lines; cited from earlier work.
The test system of assay [8] is MLL germline leukemia cell lines. The following applies: cited from earlier work.
Assay [9] concerns MLL-translocated cell lines. The following applies: Daigle; cited from earlier work.
A further assay relates to MUTZ-11. Briefly: Proliferation of MLL-PTD cell line MUTZ-11. The following applies: 10 μM, 10-day period; FIG. 3A.
The test system of assay [10] is MLL germline leukemia cell lines. Briefly: Proliferation of MLL germline leukemia cell lines. Conditions: 10 μM; cell lines that do not show elevated HOXA gene expression; FIG. 2.

In general, IC50 refers to the point on the concentration scale where inhibition reaches its midpoint. Lower therefore signals greater potency in that assay. As to `CC(C)N(CCCNC(=O)Nc1ccc(C(C)(C)C)cc1)C[C@H]1O[C@@H](n2ccc3c(N)ncnc32)[C@H](O)[C@@H]1O` [EPZ004777, 1-(3-((((2R,3S,4R,5R)-5-(4-Amino-7H-pyrrolo[2,3-d]pyrimidin-7-yl)-3,4-dihydroxytetrahydrofuran-2-yl)methyl)(isopropyl)amino)propyl)-3-(4-(tert-butyl)phenyl)urea], the half-inhibitory concentration (IC50) was above 50 µM in the assay on Jurkat [1] and 35 µM in the assay on 697. Besides, the “HOX promoter associated H3K79 methylation” value in the assay with H3K79me2 [2] (7 day treatment) was “significantly reduced”. In the assay with H3K79me2 [2] (10 days, NUP98-NSD1 cells, FIG. 8A), the “global H3K79me2 level (Western blotting)” value was “completely abrogated; also recorded: decrease”. The “apoptosis (Annexin V staining)” value in assay [3] was “more apoptosis; also recorded: induces apoptosis”. Further, the “sensitivity to DOT1L inhibition” value in [4] was “insensitive”. Moreover, the “response to DOT1L inhibition” value in [5] is “cell cycle arrest and apoptosis”. In addition, the “specificity for DOT1L / H3K79me as compared to other methyl transferases” value in the assay with other methyltransferases is “highly specific; also recorded: remarkable specificity”. Besides, in the assay on Jurkat [6], the “growth of MLL-germline Jurkat cells” value is “unaffected”. Also, in the assay on H3K79me2 [7], the H3K79me2 histone methylation result is “inhibited”. Besides, the survival entry with MLL xenograft is given as “prolonged survival; also recorded: extension of survival”. The “concentration range inhibiting H3K79 methylation” value in the assay on H3K79 methylation was “mid-nM range”. The anti-proliferative effect entry in [8] (MLL germline leukemia cell lines) is on record as “no anti-proliferative effect”. The “factor by which leukemic cells lacking MLL fusions are less sensitive” value in assay [8] is given as “approximately 100”. Further, the “antiproliferative, differentiating, and apoptotic activities toward leukemia cells harboring MLL fusions” value in assay [9] was “highly selective”. For the same compound, in the assay on MUTZ-11, the “proliferation (cell counts)” value is on record as “significantly inhibited”. The influence on proliferation entry in assay [10] is on record as “does not influence”.
